Results: patent publication US20240197938A1, “ANTIMICROBIAL COMPOUNDS BASED ON GLUCOHEPTONIC ACIDS AND THEIR SALTS” (HARCROS CHEMICALS, INC., priority 2021, published 2024)

Assays:
Format in all cases: cell-based
[1] = test system: all microbes (Candida albicans, Staphylococcus aureus, Staphylococcus epidermidis, Escherichia coli, Salmonella abony, Listeria monocytogenes); experiment: ASTM E2315-16 Time-Kill Procedure, average across all microbes; conditions: for Log Reduction, Average, all microbes: 30 seconds; for log reduction, Average, all microbes: 10 minutes
Experimental: (§1) Select compounds were tested for antimicrobial activity using ASTM method […]-16 (Standard Guide for Assessment of Antimicrobial Activity using a Time-Kill Procedure). Six microbes were tested: Candida albicans, Staphylococcus aureus, Staphylococcus epidermidis. Escherichia coli, Salmonella abony, and Listeria monocytogenes. Four chlorhexidine salts were tested: chlorhexidine di-α-glucoheptonate (Sample G), chlorhexidine di-β73-glucoheptonate (Sample H), chlorhexidine digluconate (Sample I), and chlorhexidine diacetate (Sample P). Both chlorhexidine diglucoheptonate salts were prepared at a 2:1 molar ratio of glucoheptonic acid to chlorhexidine. Dilutions of each salt were prepared using sterile water (20-30 ppm hardness), to achieve the desired wt. % concentration. Samples G, H, I, and P were also tested at a concentration of 0.60 wt % active and evaluated for the average Log Reduction in microbial population at 10 minutes, across all microbes. A further test was conducted at a concentration of 1.0 wt % active and evaluated for the average Log Reduction in microbial population at 10 minutes, across all microbes. Benzalkonium salts were also tested using the same procedure as set forth in Example 13. The samples were benzalkonium chloride (C12-C16) (Sample C), benzalkonium chloride (C12-C14) (Sample D), benzalkonium chloride in combination with a stoichiometric amount of α-glucoheptonate (Sample F), and benzalkonium chloride in combination with a molar excess of α-glucoheptonate (Sample N). Sample F was prepared by mixing and extensively heating a stoichiometric quantity (1:1) of sodium α-glucoheptonate with benzalkonium chloride, typified by the C12-14 alkyl chain. Sample N was prepared by simply blending benzalkonium chloride, typified by the C12-16 chain, with a molar excess of sodium α-glucoheptonate (1.6:1). Both Samples F and N contain sodium chloride. A further antimicrobial test was conducted to determine the log reduction at 10 minutes. Samples C, D, F, and N are as defined above.

Escherichia coli = experiment: ASTM E2315-16 Time-Kill Procedure; conditions: for Log Reduction: 30 seconds; for log reduction: 10 minutes
Experimental: as §1, with “concentration.” for “concentration. Samples G, H, I, and P were also tested at a concentration of 0.60 wt % active and evaluated for the average Log Reduction in microbial population at 10 minutes, across all microbes. A further test was conducted at a concentration of 1.0 wt % active and evaluated for the average Log Reduction in microbial population at 10 minutes, across all microbes.”, “chloride.” for “chloride. A further antimicrobial test was conducted to determine the log reduction at 10 minutes. Samples C, D, F, and N are as defined above.”

Salmonella abony = experiment: ASTM E2315-16 Time-Kill Procedure; conditions: for Log Reduction: 30 seconds; for log reduction: 10 minutes
Experimental: as §1, with “concentration.” for “concentration. Samples G, H, I, and P were also tested at a concentration of 0.60 wt % active and evaluated for the average Log Reduction in microbial population at 10 minutes, across all microbes. A further test was conducted at a concentration of 1.0 wt % active and evaluated for the average Log Reduction in microbial population at 10 minutes, across all microbes.”, “chloride.” for “chloride. A further antimicrobial test was conducted to determine the log reduction at 10 minutes. Samples C, D, F, and N are as defined above.”

Listeria monocytogenes = experiment: ASTM E2315-16 Time-Kill Procedure; conditions: for Log Reduction: 30 seconds; for log reduction: 10 minutes
Experimental: as §1, with “concentration.” for “concentration. Samples G, H, I, and P were also tested at a concentration of 0.60 wt % active and evaluated for the average Log Reduction in microbial population at 10 minutes, across all microbes. A further test was conducted at a concentration of 1.0 wt % active and evaluated for the average Log Reduction in microbial population at 10 minutes, across all microbes.”, “chloride.” for “chloride. A further antimicrobial test was conducted to determine the log reduction at 10 minutes. Samples C, D, F, and N are as defined above.”

[2] = test system: Staphylococcus epidermidis; experiment: ASTM E2315-16 Time-Kill Procedure; conditions: for Log Reduction: 30 seconds; for log reduction: 10 minutes
Experimental: (§2) Select compounds were tested for antimicrobial activity using ASTM method […]-16 (Standard Guide for Assessment of Antimicrobial Activity using a Time-Kill Procedure). Six microbes were tested: Candida albicans, Staphylococcus aureus, Staphylococcus epidermidis. Escherichia coli, Salmonella abony, and Listeria monocytogenes. Four chlorhexidine salts were tested: chlorhexidine di-α-glucoheptonate (Sample G), chlorhexidine di-β73-glucoheptonate (Sample H), chlorhexidine digluconate (Sample I), and chlorhexidine diacetate (Sample P). Both chlorhexidine diglucoheptonate salts were prepared at a 2:1 molar ratio of glucoheptonic acid to chlorhexidine. Dilutions of each salt were prepared using sterile water (20-30 ppm hardness), to achieve the desired wt. % concentration. Two glucoheptonic acids were evaluated for antimicrobial activity against the same six microbes as Example 13. Sample L was α-glucoheptonic acid. Sample M was β73-glucoheptonic acid. Benzalkonium salts were also tested using the same procedure as set forth in Example 13. The samples were benzalkonium chloride (C12-C16) (Sample C), benzalkonium chloride (C12-C14) (Sample D), benzalkonium chloride in combination with a stoichiometric amount of α-glucoheptonate (Sample F), and benzalkonium chloride in combination with a molar excess of α-glucoheptonate (Sample N). Sample F was prepared by mixing and extensively heating a stoichiometric quantity (1:1) of sodium α-glucoheptonate with benzalkonium chloride, typified by the C12-14 alkyl chain. Sample N was prepared by simply blending benzalkonium chloride, typified by the C12-16 chain, with a molar excess of sodium α-glucoheptonate (1.6:1). Both Samples F and N contain sodium chloride.

Candida albicans = experiment: ASTM E2315-16 Time-Kill Procedure; conditions: for Log Reduction: 30 seconds; for log reduction: 10 minutes
Experimental: as §2

Staphylococcus aureus = experiment: ASTM E2315-16 Time-Kill Procedure; conditions: for Log Reduction: 30 seconds; for log reduction: 10 minutes
Experimental: as §2

benzalkonium chloride (C12-C14) [Sample D]
Log Reduction, Average, all microbes ([1]; 0.10%): 3.28 | Log Reduction, Average, all microbes ([1]; 0.25%): 3.50 | Log Reduction, Average, all microbes ([1]; 0.50%): 3.78 | log reduction, Average, all microbes ([1]; 0.10%): 4.84 | log reduction, Average, all microbes ([1]; 0.25%): 5.21 | log reduction, Average, all microbes ([1]; 0.50%): 5.41 | Log Reduction (Escherichia coli; 0.10%): 2.87 | Log Reduction (Escherichia coli; 0.25%): 3.17 | Log Reduction (Escherichia coli; 0.50%): 3.29 | log reduction (Escherichia coli; 0.10%): 4.62 | log reduction (Escherichia coli; 0.25%): 4.77 | log reduction (Escherichia coli; 0.50%): 5.07 | Log Reduction (Salmonella abony; 0.10%): 2.70 | Log Reduction (Salmonella abony; 0.25%): 2.86 | Log Reduction (Salmonella abony; 0.50%): 3.04 | log reduction (Salmonella abony; 0.10%): 4.14 | log reduction (Salmonella abony; 0.25%): 4.34 | log reduction (Salmonella abony; 0.50%): 4.55 | Log Reduction (Listeria monocytogenes; 0.10%): 3.49 | Log Reduction (Listeria monocytogenes; 0.25%): 3.77 | Log Reduction (Listeria monocytogenes; 0.50%): 3.91 | log reduction (Listeria monocytogenes; 0.10%): 5.61 | log reduction (Listeria monocytogenes; 0.25%): 5.97 | log reduction (Listeria monocytogenes; 0.50%): 6.02 | Log Reduction ([2]; 0.10%): 3.39 | Log Reduction ([2]; 0.25%): 3.47 | Log Reduction ([2]; 0.50%): 3.75 | log reduction ([2]; 0.10%): 4.47 | log reduction ([2]; 0.25%): 4.98 | log reduction ([2]; 0.50%): 5.05 | Log Reduction (Candida albicans; 0.10%): 3.65 | Log Reduction (Candida albicans; 0.25%): 3.75 | Log Reduction (Candida albicans; 0.50%): 4.51 | log reduction (Candida albicans; 0.10%): 4.84 | log reduction (Candida albicans; 0.25%): 5.55 | log reduction (Candida albicans; 0.50%): 5.77 | Log Reduction (Staphylococcus aureus; 0.10%): 3.59 | Log Reduction (Staphylococcus aureus; 0.25%): 3.97 | Log Reduction (Staphylococcus aureus; 0.50%): 4.19 | log reduction (Staphylococcus aureus; 0.10%): 5.37 | log reduction (Staphylococcus aureus; 0.25%): 5.67 | log reduction (Staphylococcus aureus; 0.50%): 5.97

benzalkonium chloride (C12-C16) [Sample C]
Log Reduction, Average, all microbes ([1]; 0.10%): 3.54 | Log Reduction, Average, all microbes ([1]; 0.25%): 3.76 | Log Reduction, Average, all microbes ([1]; 0.50%): 3.91 | log reduction, Average, all microbes ([1]; 0.10%): 5.21 | log reduction, Average, all microbes ([1]; 0.25%): 5.51 | log reduction, Average, all microbes ([1]; 0.50%): 5.35 | Log Reduction (Escherichia coli; 0.10%): 3.01 | Log Reduction (Escherichia coli; 0.25%): 3.29 | Log Reduction (Escherichia coli; 0.50%): 3.52 | log reduction (Escherichia coli; 0.10%): 4.59 | log reduction (Escherichia coli; 0.25%): 5.07 | log reduction (Escherichia coli; 0.50%): 5.07 | Log Reduction (Salmonella abony; 0.10%): 3.04 | Log Reduction (Salmonella abony; 0.25%): 3.34 | Log Reduction (Salmonella abony; 0.50%): 3.39 | log reduction (Salmonella abony; 0.10%): 4.44 | log reduction (Salmonella abony; 0.25%): 4.50 | log reduction (Salmonella abony; 0.50%): 4.50 | Log Reduction (Listeria monocytogenes; 0.10%): 3.72 | Log Reduction (Listeria monocytogenes; 0.25%): 3.87 | Log Reduction (Listeria monocytogenes; 0.50%): 3.99 | log reduction (Listeria monocytogenes; 0.10%): 5.60 | log reduction (Listeria monocytogenes; 0.25%): 5.99 | log reduction (Listeria monocytogenes; 0.50%): 6.02 | Log Reduction ([2]; 0.10%): 3.39 | Log Reduction ([2]; 0.25%): 3.50 | Log Reduction ([2]; 0.50%): 3.65 | log reduction ([2]; 0.10%): 4.79 | log reduction ([2]; 0.25%): 5.05 | log reduction ([2]; 0.50%): 5.05 | Log Reduction (Candida albicans; 0.10%): 4.18 | Log Reduction (Candida albicans; 0.25%): 4.35 | Log Reduction (Candida albicans; 0.50%): 4.56 | log reduction (Candida albicans; 0.10%): 5.95 | log reduction (Candida albicans; 0.25%): 6.35 | log reduction (Candida albicans; 0.50%): 6.43 | Log Reduction (Staphylococcus aureus; 0.10%): 3.89 | Log Reduction (Staphylococcus aureus; 0.25%): 4.19 | Log Reduction (Staphylococcus aureus; 0.50%): 4.37 | log reduction (Staphylococcus aureus; 0.10%): 5.86 | log reduction (Staphylococcus aureus; 0.25%): 6.07 | log reduction (Staphylococcus aureus; 0.50%): 5.05
